Assay [1] relates to spores. Description: Sterilization by evaporated hydrogen peroxide solution alone or followed by ozone. It is filed as cell-based. The source says: Indeed the evaporated hydrogen peroxide solution injected into the chamber is not sufficient to achieve sterilization, although a 4 log reduction in spores has been observed. […] Such complete sterilization could not be achieved using only the injection of evaporated hydrogen peroxide solution, independent of the amount of hydrogen peroxide solution used and the concentration of the solution. Moreover, high concentrations of hydrogen peroxide reduce compatibility with some instruments. […] In fact the dwelling time after hydrogen peroxide injection appears to have no effect on sterilization efficacy.

In assay [2] the test system is spores of G. stearothermophilus. Description: Estimate of spores inactivated by NO / NO2 alone. It is filed as cell-based. The protocol:
In this experiment, the amount of NO injected was 2 mg/L. Considering that all NO molecules were transformed in NO2, a D-value of 1.9 minutes for a concentration of 2 mg/L of NO2, only 2.5 log of spores would have been inactivated by the NO2. This less than the 6 log present on the inoculated devices. In reality, the conversion rate of NO in NO2 is probably not 100%, and the D-value is more than 1.9 minutes. Thus the number of spores inactivated by NO only is probably more around 1 log.

The subject of assay [3] is G. stearothermophilus ATCC 7953 spores. Description: Sterile efficacy on inoculated lumens, half-cycle of each TSO3 cycle. It is filed as cell-based. The following applies: for sterility result in words, gas replacing ozone after hydrogen peroxide injection: all three cycles, gas injected after hydrogen peroxide. The source says:
The test evaluated the sterile efficacy on inoculated devices. Inoculated wires were inserted in tubing and afterwards in pouches. The pouches were also placed at the top of the loading carriage in the sterilization chamber.
The same loads were used for the three series of tests performed: ozone, oxygen and nitric oxide. The length, diameter, material and type of tubing were different for each cycle and are described in Table 3. The inoculated lumens were placed in a special load representing an average load for the three cycles.
The lumens used to evaluate the sterile efficacy were inoculated according to protocol MCB-09-A07 rev 9. The wire method was used. The wires were inoculated with 10 μL of a G. stearothermophilus ATCC 7953 spores suspension of 1.0×10^6 to 2.5×10^6 UFC/10 μL. The inoculated wires were left to dry overnight at normal room conditions.
Test loads were exposed to a half-cycle of each cycle. For the experiment with oxygen and nitrogen oxide, ozone was replaced by the gas to be tested. A burette was also plugged on the valve system in order to precisely determine the H2O2 injected volume.
The baseline of sterile efficacy on the inoculated lumens used in each cycle was established using only hydrogen peroxide. Cycles using hydrogen peroxide and ozone were performed to compare the efficacy of oxygen and nitrogen oxide to ozone.
The oxygen was injected in the chamber using the same system as that used for ozone. The ozone generator was turned off.
The NO was injected however directly in the chamber from an independent NO cylinder (Praxair). […] By doing so, the gas was forced into the chamber.
All tests were performed outside in order to limit possible dangers from accidental leaks. A NO detector was used. A long tube was plugged into the catalyst converter unit, to allow the NO to be eliminated far from the set-up. A calculation was performed (see below) to determine the number of valve injections necessary to obtain a concentration of 2 mg/L. • Valve volume: 3.3 mL (Volume calculated in R-1937) • NO Density NTP: 1.25 g/L • Sterilisation chamber volume: 125 L • Finale concentration desired: 2 mg/L • NO Pressure: 3 psig • Corrected volume: 3300×((14.7+3)/14.7)=3973.2 μL • Mass to be injected: 0.002 g/L×125 L=0.25 gno • Masse injected by each injection: 1.25 g/L×0.003974 L=4.9665×10^−3 g/injection • Number of injections required: 0.25 gno/4.9665×10^−3 g/injection=50 injections

For assay [4], the system named is spores. The following applies: 3.4 mL per pulse; half-cycle of Cycle 1; Teflon 1 mm x 80 cm.
Description: In order to inject a high volume at once, a valve separated by Teflon tubing was used instead of the normally used microvalve (TSO3 #: AM-213-001). The tubing length was determined by the volume to be injected. Since the volume contained in the valve is significant, two sizes of valves were used. The first type (TSO3 #: CM-900-157) with an orifice of 0.062″, was used for a volume up to 1.5 mL. The second Neptune type, with an orifice of 0.156″, (TSO3 #: CM-900-156), was used for a volume up to 3.5 mL. The larger valve size also helps to push the large liquid volume into the chamber. For the 35 μL volume, a Burket 7616 micropump (TSO3 #: CM-113-001) was used. For the 23 μL volume, a larger, specially-made block was used.
Two cycles were used for this experiment. To test the sterility, Cycle 1 (half-cycle) was used, where the injection step of the conditioning phase was modified with a variation in volume and pulse for each attempt, as previously described. As for the condensation effect, Cycle 3, consisting of four phases, was utilized. This cycle was chosen due to the fact that a greater quantity of hydrogen peroxide was injected for the cycle, making it the worst case scenario. […] After exposure to a half-cycle of Cycle 1, the sterility of each lumen was determined according to MCB-09-A04 rev. 7 by quantitative recovery using the ultrasound technique followed by filtration. […]
The subject of assay [5] is spores of G. stearothermophilus. Conditions: cited from earlier work.

Entries after “also recorded” stand apart in the source; their conditions may differ. Where two headings read alike, the source gives them in different places.

For the molecule `O=[O+][O-]` [ozone], the “sterilization result in words” value in the assay with spores [1] (1-10 mg of ozone per liter of sterilization atmosphere added after evaporated hydrogen peroxide, SAL 10^-6) was “full and complete sterilization”.
In the case of Nitrogen monoxide, the “spores inactivated by NO only” value in assay [2] (2 mg/L NO, conversion to NO2 probably not 100%) is on record as “around 1 log”. In assay [3], the “sterility result in words, gas replacing ozone after hydrogen peroxide injection” value is listed as “complete sterility in all three cycles”.
In the case of `O=O` [oxygen], the “sterility result in words, gas replacing ozone after hydrogen peroxide injection” value in assay [3] is “ineffective to replace ozone; also recorded: Sterility was not achieved in two of the three cycles”.
For the molecule `OO` [H2O2, hydrogen peroxide], the spore count result in the assay with spores [4] is on record as “zero”. Besides, the “Sterile lumens Cycle 1” value in assay [3] (half-cycle of Cycle 1, Teflon lumen 1 mm x 80 cm, O3 or O2 2 mg/L, NO 2 mg/L) is on record as 50%. In assay [3] (half-cycle of Cycle 2, stainless steel lumen 1 mm x 50 cm, O3 or O2 10 mg/L, NO 2 mg/L), the “Sterile lumens Cycle 2” value stood at 12.5%. Moreover, in assay [3] (half-cycle of Cycle 3, Teflon lumen 1 mm x 110 cm, O3 or O2 3 mg/L, NO 2 mg/L), the “Sterile lumens Cycle 3” value turned out to be 16%. In the assay with spores [1] (evaporated hydrogen peroxide solution only, no ozone), this molecule returned a reduction in spores of 4 log.
As for `[O]N=O` [NO2, nitrogen dioxide], the “spores inactivated by the NO2” value in assay [2] (assuming all NO (2 mg/L) transformed into NO2 and a D-value of 1.9 minutes) is recorded as 2.5 log. Also, the D-value result in assay [5] (3 mg/L) was “approximately 1.9 minutes”; in assay [5] (5.12 mg/L NO2), 0.3 min.

Values taken from patent US9101679B2, “Sterilization method and apparatus” (TS03 Inc., priority 2009, dated 2015).
